Source: the supplement of paper PMC10307832

Key:
Test in all cases: relative viability (nuclei count vs DMSO), 5 days (fraction); higher = more cells survive
Vemurafenib + Dasatinib = compound: CCCS(=O)(=O)Nc1ccc(F)c(C(=O)c2c[nH]c3ncc(-c4ccc(Cl)cc4)cc23)c1F [Vemurafenib] + Cc1nc(Nc2ncc(C(=O)Nc3c(C)cccc3Cl)s2)cc(N2CCN(CCO)CC2)n1 [Dasatinib] (partner 0.075 µM)
Procedure, shortened: (§1)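 Nuclei were stained with Hoechst during a one-step fixation (final 0.05% Triton X-100, 1% formaldehyde, 1 ug/ml Hoechst) carried out 5 days after dosing, then counted on 4× images. The cells, lung cancer lines in 1536-well plates, had been dosed by pin tool the day after seeding with one drug alone or a fixed anchor-drug dose plus five library-drug doses (not always all listed) in √10 steps. Relative viability is the nuclei count in treated wells divided by that in vehicle wells, and each value is the median of duplicate plates.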

Alpelisib + Vorinostat = compound: Cc1nc(NC(=O)N2CCC[C@H]2C(N)=O)sc1-c1ccnc(C(C)(C)C(F)(F)F)c1 [Alpelisib] + O=C(CCCCCCC(=O)Nc1ccccc1)NO [Vorinostat] (partner 1 µM)
Procedure, shortened: as §1

OSI-027 + Navitoclax = compound: COc1cccc2cc(-c3nc([C@H]4CC[C@H](C(=O)O)CC4)n4ncnc(N)c34)[nH]c12 [OSI-027] + CC1(C)CCC(c2ccc(Cl)cc2)=C(CN2CCN(c3ccc(C(=O)NS(=O)(=O)c4ccc(N[C@H](CCN5CCOCC5)CSc5ccccc5)c(S(=O)(=O)C(F)(F)F)c4)cc3)CC2)C1 [Navitoclax] (partner 0.5 µM)
Procedure, shortened: as §1

OSI-027 + Trametinib = compound: COc1cccc2cc(-c3nc([C@H]4CC[C@H](C(=O)O)CC4)n4ncnc(N)c34)[nH]c12 [OSI-027] + CC(=O)Nc1cccc(-n2c(=O)n(C3CC3)c(=O)c3c(Nc4ccc(I)cc4F)n(C)c(=O)c(C)c32)c1 [Trametinib] (partner 0.02 µM)
Procedure, shortened: as §1

Cell Line	relative viability (Vemurafenib + Dasatinib; first compound 0.03162 µM)	relative viability (Vemurafenib + Dasatinib; first compound 0.1 µM)	relative viability (Vemurafenib + Dasatinib; first compound 1 µM)	relative viability (Alpelisib + Vorinostat; first compound 0.04 µM)	relative viability (Alpelisib + Vorinostat; first compound 0.1265 µM)	relative viability (Alpelisib + Vorinostat; first compound 0.4 µM)	relative viability (Alpelisib + Vorinostat; first compound 1.265 µM)	relative viability (Alpelisib + Vorinostat; first compound 4 µM)	relative viability (OSI-027 + Navitoclax; first compound 0.01 µM)	relative viability (OSI-027 + Navitoclax; first compound 0.03162 µM)	relative viability (OSI-027 + Navitoclax; first compound 0.1 µM)	relative viability (OSI-027 + Navitoclax; first compound 0.3162 µM)	relative viability (OSI-027 + Navitoclax; first compound 1 µM)	relative viability (OSI-027 + Trametinib; first compound 0.01 µM)	relative viability (OSI-027 + Trametinib; first compound 0.03162 µM)	relative viability (OSI-027 + Trametinib; first compound 0.1 µM)	relative viability (OSI-027 + Trametinib; first compound 0.3162 µM)	relative viability (OSI-027 + Trametinib; first compound 1 µM)	relative viability (Vemurafenib + Dasatinib; first compound 0.3162 µM)
NCI-H838	0.256	0.22	0.325	0.675	0.697	0.72	0.642	0.606	0.981	0.998	0.853	0.501	0.276	0.455	0.532	0.436	0.317	0.206	–
NCI-H1975	0.359	0.339	0.378	0.696	0.674	0.61	0.426	0.402	1.19	1.11	1.16	1.02	0.508	0.278	0.386	0.3	0.294	0.264	0.206
A-427	0.597	0.624	0.581	0.854	0.861	0.893	0.827	0.858	0.974	0.873	0.837	0.603	0.696	0.721	0.747	0.574	0.437	0.329	0.446
SK-LU-1	0.16	0.17	0.185	0.817	0.775	0.847	0.676	0.689	0.743	0.869	0.679	0.453	0.259	0.458	0.491	0.457	0.334	0.327	0.159
PC-3 [JPC-3]	0.921	–	1.08	0.877	0.699	1.12	0.638	0.514	0.822	0.765	0.772	0.739	0.547	0.616	0.651	0.599	0.603	0.437	0.9
ChaGo-K-1	0.511	0.517	0.6	0.698	0.759	0.825	0.573	0.564	0.988	1.4	0.533	0.759	0.713	0.919	0.903	0.833	0.882	0.661	0.396
NCI-H2023	0.507	0.506	0.489	0.595	0.634	0.61	0.394	0.348	0.982	0.99	0.964	0.708	0.255	0.645	0.506	0.435	0.388	0.272	0.444
LXF-289	0.203	0.236	0.181	0.741	0.685	0.942	0.723	0.766	1.03	0.973	1.01	0.921	0.582	0.681	0.707	0.752	0.612	0.357	0.0972
EBC-1	–	–	–	–	–	–	–	–	0.382	0.33	0.432	0.239	0.203	–	–	–	–	–	–
LOU-NH91	0.509	–	0.572	0.936	0.785	0.823	0.715	0.556	0.758	0.712	0.69	0.653	0.513	0.766	0.785	0.66	0.591	0.579	–
Calu-6	–	–	–	–	–	–	–	–	0.78	0.897	0.752	0.782	0.493	–	–	–	–	–	–
SW 900	0.827	0.61	0.505	0.497	–	0.587	0.368	0.461	–	–	–	–	–	0.933	0.866	0.789	0.712	0.608	0.538
NCI-H650	0.392	0.52	0.395	0.394	0.314	0.538	0.35	0.325	–	–	–	–	–	0.915	1.11	0.909	0.851	0.454	–
NCI-H1563	0.526	0.432	0.419	–	–	–	–	–	–	–	–	–	–	–	–	–	–	–	0.465
NCI-H1792	0.84	0.733	0.815	–	–	–	–	–	0.417	0.458	0.556	0.572	0.43	0.528	0.303	0.412	0.408	0.219	–
NCI-H522	1.08	0.718	0.855	0.79	0.977	1.04	0.867	0.742	–	–	–	–	–	0.691	0.709	0.725	0.632	0.463	0.875
NCI-H1623	0.565	–	0.485	–	–	–	–	–	–	–	–	–	–	–	–	–	–	–	0.716
ABC-1	–	0.563	0.567	1.15	0.602	0.905	0.869	0.692	–	–	–	–	–	–	–	–	–	–	–
NCI-H358	0.142	0.116	0.203	0.686	0.563	0.768	0.428	0.321	–	–	–	–	–	0.114	0.129	0.123	0.112	0.117	0.22
NCI-H1648	–	–	–	0.418	0.457	0.714	0.317	0.324	–	–	–	–	–	0.481	0.449	–	0.49	0.321	–
NCI-H1299	–	–	–	–	–	–	–	–	1.07	1.05	1.08	1.1	1	–	–	–	–	–	–
NCI-H1703	–	–	–	–	–	–	–	–	0.864	1.11	0.991	0.625	0.512	–	–	–	–	–	–
A549	–	–	–	–	–	–	–	–	1.16	1.24	1.01	0.971	0.319	–	–	–	–	–	–
HCC-44	–	–	–	1.1	1.05	1.11	1.04	1.18	0.966	0.982	0.96	0.833	0.383	1.04	1.07	1.05	0.942	0.795	–
LCLC-103H	0.45	0.505	0.388	0.74	0.744	0.801	0.669	0.624	–	–	–	–	–	0.708	0.645	0.65	0.609	0.689	0.317
